Test results from patent US6756206B2, “Adsorption and removal of endotoxin from physiological fluids using cationic helix peptides” (Commonwealth Biotechnologies, Inc., priority 1998, dated 2004).
Where two headings read alike, the source gives them in different places. No end group written: not given here.

What was measured:
[1] = Neutralization of endotoxin purposely added to plasma or buffer, kinetic chromogenic Limulus amebocyte lysate endotoxin assay; type: biochemical; conditions: for neutralization (binding) of endotoxin, in words: endotoxin added to plasma or aqueous samples; for Percent binding of Endotoxin: plasma, endotoxin 10 ng/mL
Description: The presence of endotoxin may routinely be measured using, for example, a kinetic chromogenic method. The assay involves a complete set of enzyme reactions which are described in detail in the following publications, each of which is hereby incorporated by reference.
In the course of the endotoxin assay, a calibration curve is prepared which is a plot of logarithm of the time of the kinetic endpoint of a chromogenic reaction versus the logarithm of known concentrations of endotoxin.
Thus, if endotoxin is added to aqueous buffer solutions or to plasma the amount of endotoxin present can be assayed by reference to the calibration curve. Similarly, if plasma, plasma fractions, patient samples or any test solution contains an endogenous level of endotoxin, the level can also be determined by reference to the calibration curve.
Endotoxin was purposely added to plasma to a final concentration of 10 ng/mL and increasing concentrations of the compounds Arg Helix #2 (a monomeric cationic helix peptide), Bis Arg Helix #2 (which contains 2 copies of Arg Helix #2), Tris Arg Helix #3 (which contains 3 copies of Arg Helix #3), Tetra Arg Helix #3 (4 copies of Arg Helix #3) or Tris Arg Helix #3 (constrained) (3 copies of Arg Helix #3 constrained by design to present a “binding groove” within the molecule) were added to these same samples (Table 1).

[2] = cited from earlier work

## Bis Arg Helix #2: contains 2 copies of Arg Helix #2; SEQ ID NOS.:2 and 3, FIG. 1A (chain 1 ARAARRAARAAARRARAEA; chain 2 AEARARRAAARAARRAARA; also: two copies linked, linkage not given here)
[1]
  neutralization (binding) of endotoxin, in words: very little neutralization (binding) activity
[1]; peptide concentration 0.01 mg/mL
  Percent binding of Endotoxin: 0.00%
[1]; peptide concentration 0.1 mg/mL
  Percent binding of Endotoxin: 24.7%
[1]; peptide concentration 0.5 mg/mL
  Percent binding of Endotoxin: 51.2%
[1]; peptide concentration 1.0 mg/mL
  Percent binding of Endotoxin: 63.5%

## protamine [reference compound]
[1]
  neutralization (binding) of endotoxin, in words: ineffective in neutralizing endotoxin

B1: rHBP: recombinant heparin binding protein; formerly known as cationic antimicrobial protein or bactericidal/permeability increasing factor (protein, UniProt P20160 27-248, looked up)
Azurocidin: IVGGRKARPRQFPFLASIQNQGRHFCGGALIHARFVMTAASCFQSQNPGVSTVVLGAYDLRRRERQSRQTFSISSMSENGYDPQQNLNDLMLLQLDREANLTSSVTILPLPLQNATVEAGTRCQVAGWGSQRSGGRLSRFPRFVNVTVTPEDQCRPNNVCTGVLTRRGGICNGDGGTPLVCEGLAHGVASFSLGPCGRGPDFFTRVALFRDWIDGVLNNPGP
[2]; animals treated with cefoxitin and rHBP, compared to controls
  Survival: increased significantly
[2]; mice pretreated well in advance
  Survival: increased
[2]; treated at the time of ligation and puncture, versus control group
  Survival: not significantly different
